Experimental data as given in patent publication US12637474B2, “Five-membered heteroaromatic imidazole compound and use thereof” (Hangzhou Sciwind Biosciences Co., Ltd, priority 2020, dated 2026).

Experiments:
hERG potassium channel = target: T1, hERG potassium channel (Homo sapiens, UniProt Q12809); assay: hERG test (automatic patch clamp, CHO-hERG cells); format: cell-based; settings: hERG current; for IC50: Qpatch; for Maximum concentration inhibition rate (%): highest test concentration 40 μM
T1 construct: expressed in transfected cells; host or cells: CHO-hERG cells
T1 sequence (Q12809 whole entry): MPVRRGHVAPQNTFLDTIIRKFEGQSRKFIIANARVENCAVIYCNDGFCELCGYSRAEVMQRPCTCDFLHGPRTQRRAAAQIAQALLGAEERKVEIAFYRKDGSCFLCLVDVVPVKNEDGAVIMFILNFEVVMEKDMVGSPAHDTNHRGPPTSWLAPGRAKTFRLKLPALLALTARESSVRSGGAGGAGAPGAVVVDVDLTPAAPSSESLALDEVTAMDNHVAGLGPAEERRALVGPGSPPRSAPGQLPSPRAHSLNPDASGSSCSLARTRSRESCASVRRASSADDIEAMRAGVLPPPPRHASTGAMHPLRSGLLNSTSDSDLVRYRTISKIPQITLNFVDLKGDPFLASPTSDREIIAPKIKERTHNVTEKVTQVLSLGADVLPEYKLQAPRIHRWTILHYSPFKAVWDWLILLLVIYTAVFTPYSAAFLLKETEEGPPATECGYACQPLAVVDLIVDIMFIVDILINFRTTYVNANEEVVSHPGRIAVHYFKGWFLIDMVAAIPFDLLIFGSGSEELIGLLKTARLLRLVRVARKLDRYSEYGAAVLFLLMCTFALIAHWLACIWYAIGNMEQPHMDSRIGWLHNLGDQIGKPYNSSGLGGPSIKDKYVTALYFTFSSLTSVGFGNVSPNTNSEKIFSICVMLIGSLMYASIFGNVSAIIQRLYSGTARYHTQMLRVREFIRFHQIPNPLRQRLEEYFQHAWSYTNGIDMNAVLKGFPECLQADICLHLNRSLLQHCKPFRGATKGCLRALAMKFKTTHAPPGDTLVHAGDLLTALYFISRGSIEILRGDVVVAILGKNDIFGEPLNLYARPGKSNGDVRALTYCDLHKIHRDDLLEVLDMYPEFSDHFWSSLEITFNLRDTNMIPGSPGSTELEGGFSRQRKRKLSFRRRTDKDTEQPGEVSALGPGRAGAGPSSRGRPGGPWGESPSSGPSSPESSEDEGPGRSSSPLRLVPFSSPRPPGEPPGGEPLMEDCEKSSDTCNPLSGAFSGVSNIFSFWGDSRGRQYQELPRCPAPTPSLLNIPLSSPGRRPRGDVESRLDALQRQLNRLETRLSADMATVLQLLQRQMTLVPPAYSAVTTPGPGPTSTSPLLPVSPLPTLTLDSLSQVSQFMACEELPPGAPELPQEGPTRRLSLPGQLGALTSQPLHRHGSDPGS
Method: The effects of compounds on the current of hERG potassium channel (human Ether-a-go-go Related Gene potassium channel) were measured by the automatic patch clamp method.
CHO-hERG cells were cultured in a 175 cm^2 flask, when the cell density reached 60-80%, the culture medium was removed, the cells were washed once with 7 mL of PBS (Phosphate Buffered Saline), and then detached with 3 mL of Detachin. After digestion was completed, 7 mL of culture medium was added to neutralize, then the mixture was centrifuged, the supernatant was aspirated, and then 5 mL of culture medium was added to re-suspend, ensuring 2-5×10^6/mL of cell density.
Extracellular fluid formulation (mM): 140 NaCl, 5 KCl, 1 CaCl2, 1.25 MgCl2, 10 HEPES and 10 Glucose, the pH value was adjusted to 7.4 with NaOH.
Intracellular fluid formulation (mM): 140 KCl, 1 MgCl2, 1 CaCl2, 10 EGTA and 10 HEPES, the pH value was adjusted to 7.2 with KOH.
The process of single cell high impedance sealing and whole cell mode formation were all automatically completed by Qpatch instrument, after obtaining the whole cell recording mode, the cells were clamped at −80 mV, before giving a 5-second+40 mV depolarization stimulus, a 50 millisecond −50 mV prevoltage was given first, and then repolarized to −50 mV for 5 seconds, then returned to −80 mV. This voltage stimulation was applied every 15 seconds and after recording for 2 minutes, extracellular fluid was recordings for 5 minutes, and then the administration process was started, the compound concentration was given from the lowest test concentration, each test concentration was given for 2.5 minutes, and 3 μM of Cisapride as the positive control compound was given after all concentrations were continuously given. At least 3 cells (n>3) were tested at each concentration.
The mother liquor of the compound was diluted with DMSO, and 10 μL of mother liquor of the compound was added to 20 μL of DMSO solution, and was 3-fold diluted continuously to 6 DMSO concentrations. 4 μL of compounds with 6 DMSO concentrations were added to 396 μL of extracellular fluid, 100-fold diluted to 6 intermediate concentrations, and then 80 μL of the compounds with 6 intermediate concentrations were added to 320 μL of extracellular fluid, 5-fold diluted to the final concentration to be tested. The highest test concentration was 40 μM, in a total of 6 concentrations of 40, 13.3, 4.4, 1.48, 0.494 and 0.165 μM respectively. The content of DMSO in the final test concentration was not more than 0.2%, and this concentration of DMSO had no effect on hERG potassium channel. The whole dilution process of compound preparation was completed by Bravo instrument.
The experimental data were analyzed by GraphPad Prism 5.0 software. […]

Human-GLP1 = target: T2, Human-GLP1 (Homo sapiens, UniProt P43220); assay: In vitro cell activity test (cAMP detection, GLP-1 HEK293 cells); format: cell-based; settings: HEK293 cells expressing GLP-1 target
T2 construct: the earlier reading says HEK293
T2 sequence (P43220 24-463): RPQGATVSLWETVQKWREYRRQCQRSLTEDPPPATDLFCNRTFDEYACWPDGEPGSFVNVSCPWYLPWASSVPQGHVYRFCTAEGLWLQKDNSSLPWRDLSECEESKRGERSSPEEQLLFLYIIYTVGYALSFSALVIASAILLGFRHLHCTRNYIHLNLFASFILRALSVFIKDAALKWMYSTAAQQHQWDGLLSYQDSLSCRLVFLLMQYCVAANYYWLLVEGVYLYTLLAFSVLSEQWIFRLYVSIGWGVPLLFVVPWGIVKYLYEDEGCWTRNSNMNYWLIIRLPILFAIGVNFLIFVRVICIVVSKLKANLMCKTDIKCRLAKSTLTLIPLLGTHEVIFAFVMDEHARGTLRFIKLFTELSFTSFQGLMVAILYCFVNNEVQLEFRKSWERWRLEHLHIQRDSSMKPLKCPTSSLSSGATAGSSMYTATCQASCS
Method: Experimental Embodiment 1. In Vitro Cell Activity Test
The cell was constructed by Shanghai WuXi AppTec New Pharmaceutical Development Co., Ltd. The detailed information is as follows.
The compound was formulated to a working concentration of 30 μM with DMSO. In this experiment, the amount of each sample used was 5 μL.
The pH value was adjusted to 7.4 and diluted to 25 mL with HBSS 1×.
Preparation of cAMP detection reagent, 250 μL of cAMP-D2 and 250 μL of anti-cAMP cryptate reagent were added to 4 mL of lysis buffer, and the mixture was mixed gently.
The compound to be tested was 3-fold diluted at 10 points, the initial concentration was 30 μM, and the dilution was completed and treated by Bravo.
The reference compound exenatide was 3-fold diluted at 10 points, the initial concentration was 500 nM, and the dilution was completed and treated by Bravo.
• 1) 100 nL of the compound was transferred to OptiPlate-384 plate using Echo. • 2) The OptiPlate-384 plate was centrifuged at 1000 rpm for 5 seconds. c) Preparation of Cell Suspension • 1) A cryopreservation tube of GLP-1 cells was quickly thawed in 37° C. warm water. • 2) The cell suspension was transferred to a Transfer 15 mL centrifuge tube, and rinsed gently with 10 mL of HBSS. • 3) The centrifuge tube was centrifuged at 1000 rpm for 1 minute at room temperature. • 4) The supernatant was discarded. • 5) The bottom cells were gently homogenized and then gently rinsed with 10 mL of HBSS, centrifuged and settled, the cells were finally re-suspend with experimental buffer. • 6) Cell density and activity were measured by Vi-cell. • 7) The concentration of GLP-1 cells was diluted to 2.0*10^5/mL with experimental buffer. • 8) […] of diluted cell suspension was transferred into OptiPlate-384 plate. • 9) The cells was incubated at room temperature for 30 minutes. d) Detection Reagent was Added: • 1) 10 μL of 800 nM gradient diluted cAMP standard was added to the empty well of OptiPlate-384 plate. • 2) 10 μL of cAMP detection reagent was added. • 3) The OptiPlate-384 plate was covered with TopSeal-A film and incubated at room temperature for 60 minutes.
TopSeal-A was removed and read by EnVision.

MDR1 (P-gp) = assay: Permeability test (MDR1-MDCKII monolayer cell model); format: in vitro ADME; settings: dog, MDCK-MDR1, incubation 150 min, read-out: Efflux rate
Method: (§1) The objective of this study was to determine the bidirectional permeability and efflux rate of the samples by using MDR1-MDCKII monolayer cell model.
(§2) MDR1-MDCKII cells (11th generation) were inoculated into 96-well cell culture plate and cultured continuously for 4-7 days for transport experiment. The sample was administered in both directions at a concentration of 2.00 μM. After incubation for 150 min, the sample was collected and the content of the test product in the sample was determined by liquid chromatography-tandem mass spectrometry (LC-MS/MS).
(§3) When the administration concentration was 2.00 μM, the average apparent permeability coefficient (Papp) of the test product from the top to the basal end (A-B) direction, the average apparent permeability coefficient from the basal end to the top (B-A) direction, and the efflux ratio (ER) are shown in Table 5. Note: The boundaries of low and high permeability grades were equivalent to 50% and 80% of human “calculated Fa”. The grading criteria were based on WuXi AppTec's routine MDR1-MDCK II permeability test (test concentration was 2 μM, incubation for 2.5 hours).

[1] = as above; format: in vitro ADME; settings: dog, MDCK-MDR1, incubation 150 min; for Papp B→A at 150 min, 2 μM: basal end to top; for Papp A→B at 150 min, 2 μM: top to basal end
Method: as §1, §2, §3

MDR1-MDCKII cells = assay: as above; format: in vitro ADME; settings: 2.00 μM, low/high boundaries equivalent to 50% and 80% of human calculated Fa
Method: as §1, §2, §3

DMPK study in mice = format: in vivo; settings: male C57 mice, plasma; for Oral DNAUC / bioavailability / Cmax: oral 5 mg/kg; for Oral DNAUC: DNAUC=AUCPO/Dose; for half-life / bioavailability / clearance / Vd / Cmax: mouse; for half-life: oral, 5 mg/kg; for half-life / clearance / Vd: single dose; for Vd: read-out: Vdss
Method: Male C57 mice were used as test animals, after a single dose, the plasma concentration of the compound was determined and the pharmacokinetic behavior was evaluated.
Three healthy adult male C57 mice were selected as oral group. In the oral group, the solvent was 20% PEG400/10% solutol/70% water, the compounds to be tested were mixed with the solvent, the mixture was votexed and sonicated to prepare a 0.5 mg/mL clear solution. After oral administration of 5 mg/kg, the whole blood of mice was collected for a certain period of time, and the plasma was prepared, the drug concentration was analyzed by LC-MS/MS, and the pharmacokinetic parameters were calculated by Phoenix WinNonlin software (Pharsight Company, USA).
Note: -- refers to untested; PEG refers to polyethylene glycol; solutol refers to polyethylene glycol-15 hydroxystearate; Cmax refers to maximum concentration; DNAUC=AUCPO/Dose, AUCPO refers to oral exposure and Dose refers to drug dose; Vdss refers to distribution volume; Cl refers to clearance rate; T1/2 refers to half-life.

[2] = DMPK study in cynomolgus monkey; format: in vivo; settings: male cynomolgus monkey, plasma; for Cmax / Oral DNAUC / bioavailability: oral 3 mg/kg; for Vd: read-out: Vdss
Method: Male cynomolgus monkey were used as test animals, after a single dose, the plasma concentration of the compound was determined and the pharmacokinetic behavior was evaluated.
Two healthy male cynomolgus monkeys were selected as the oral group. The solvent of the oral group was 20% PEG 400+10% solutol+70% water. The compounds to be tested were mixed with the solvent, the mixture was votexed and sonicated to prepare a 0.5 mg/mL approximately clear solution. The oral dosage of cynomolgus monkeys was 3 mg/kg, after oral administration, the whole blood of cynomolgus monkeys was collected for a certain period of time, and the plasma was prepared, the drug concentration was analyzed by LC-MS/MS, and the pharmacokinetic parameters were calculated by Phoenix WinNonlin software (Pharsight Company, USA).

N#Cc1ccc(COc2cccc(C3=CCN(Cc4nc5sc(C(=O)O)cc5n4C[C@@H]4CCO4)CC3)n2)c(F)c1 [WXA001]
IC50 (hERG potassium channel): > 40000 nM
Maximum concentration inhibition rate (%) (hERG potassium channel): 30.4%
EC50 (Human-GLP1): 0.67 nM
efflux ratio at 150 min, 2 μM (MDR1 (P-gp)): 1.53
Papp B→A at 150 min, 2 μM [1]: 38.7 nm/s
Papp A→B at 150 min, 2 μM [1]: 25.3 nm/s
Rank (permeability grade) (MDR1-MDCKII cells): Medium
Oral DNAUC (DMPK study in mice): 647.4 nM.h/mpk
half-life (DMPK study in mice): 2.07 h
bioavailability (DMPK study in mice): 220%
clearance (DMPK study in mice): 6.24 L/h/kg
Vd (DMPK study in mice): 1.87 L/kg
Cmax (DMPK study in mice): 1.76 µM
Cmax [2]: 0.0283 µM
Oral DNAUC [2]: 74 nM.h/mpk
bioavailability [2]: 5.6%
clearance ([2]; single dose): 1.36 L/h/kg
Vd ([2]; single dose): 0.73 L/kg

N#Cc1ccc(COc2cccc(C3=CCN(Cc4nc5cc(C(=O)O)sc5n4C[C@@H]4CCO4)CC3)n2)c(F)c1 [WXA002]
EC50 (Human-GLP1): 2.7 nM

N#Cc1ccc(COc2cccc(C3CCN(Cc4nc5sc(C(=O)O)cc5n4C[C@@H]4CCO4)CC3)n2)c(F)c1 [WXA003]
EC50 (Human-GLP1): 1.07 nM

N#Cc1ccc(COc2cccc(C3CCN(Cc4nc5cc(C(=O)O)sc5n4C[C@@H]4CCO4)CC3)n2)c(F)c1 [WXA004]
EC50 (Human-GLP1): 1.9 nM

O=C(O)c1cc2c(nc(CN3CC=C(c4cccc(OCc5ccc(Cl)cc5F)n4)CC3)n2C[C@@H]2CCO2)s1 [WXA005]
IC50 (hERG potassium channel): > 40000 nM
Maximum concentration inhibition rate (%) (hERG potassium channel): 33.1%
efflux ratio at 150 min, 2 μM (MDR1 (P-gp)): 1.18
Papp B→A at 150 min, 2 μM [1]: 84.9 nm/s
Papp A→B at 150 min, 2 μM [1]: 71.9 nm/s
Rank (permeability grade) (MDR1-MDCKII cells): High
Oral DNAUC (DMPK study in mice): 301.8 nM.h/mpk
half-life (DMPK study in mice): 2.47 h
bioavailability (DMPK study in mice): 63%
clearance (DMPK study in mice): 3.82 L/h/kg
Vd (DMPK study in mice): 2.84 L/kg
Cmax (DMPK study in mice): 0.835 µM
Cmax [2]: 0.245 µM
Oral DNAUC [2]: 889 nM.h/mpk
half-life ([2]; oral, 3 mg/kg, single dose): 4.94 h
bioavailability [2]: 31%
clearance ([2]; single dose): 0.642 L/h/kg
Vd ([2]; single dose): 0.59 L/kg

O=C(O)c1cc2nc(CN3CC=C(c4cccc(OCc5ccc(Cl)cc5F)n4)CC3)n(C[C@@H]3CCO3)c2s1 [WXA006]
EC50 (Human-GLP1): 1.44 nM
Oral DNAUC (DMPK study in mice): 307.4 nM.h/mpk
half-life (DMPK study in mice): 1.43 h
Cmax (DMPK study in mice): 0.865 µM

O=C(O)c1sc2nc(CN3CC=C(c4cccc(OCc5ccc(Cl)cc5F)n4)CC3)n(C[C@@H]3CCO3)c2c1F [WXA007]
EC50 (Human-GLP1): 0.2 nM

Cc1c(C(=O)O)sc2nc(CN3CC=C(c4cccc(OCc5ccc(Cl)cc5F)n4)CC3)n(C[C@@H]3CCO3)c12 [WXA008]
EC50 (Human-GLP1): 2.46 nM

O=C(O)c1cc2c(nc(CN3CC=C(c4cccc(OCc5ccc(Cl)cc5F)c4)CC3)n2C[C@@H]2CCO2)s1 [WXA011]
EC50 (Human-GLP1): 1.94 nM

O=C(O)c1cc2nc(CN3CC=C(c4cccc(OCc5ccc(Cl)cc5F)c4)CC3)n(C[C@@H]3CCO3)c2s1 [WXA012]
EC50 (Human-GLP1): 9.4 nM

N#Cc1ccc(COc2cccc(C3=CCN(Cc4nc5sc(C(=O)O)cc5n4C[C@@H]4CCO4)CC3)c2)c(F)c1 [WXA013]
EC50 (Human-GLP1): 2.46 nM

N#Cc1ccc(COc2cccc(C3=CCN(Cc4nc5cc(C(=O)O)sc5n4C[C@@H]4CCO4)CC3)c2)c(F)c1 [WXA014]
EC50 (Human-GLP1): 9.6 nM

O=C(O)c1cc2c(nc(CN3CC=C(c4ccc(F)c(OCc5ccc(Cl)cc5F)n4)CC3)n2C[C@@H]2CCO2)s1 [WXA015]
EC50 (Human-GLP1): 1.64 nM

O=C(O)c1cc2nc(CN3CC=C(c4ccc(F)c(OCc5ccc(Cl)cc5F)n4)CC3)n(C[C@@H]3CCO3)c2s1 [WXA016]
EC50 (Human-GLP1): 3.52 nM
